Among the data in ChEMBL document CHEMBL4007481, “Synthesis and antibacterial activity of 3-benzylamide derivatives as FtsZ inhibitors” (Bioorg Med Chem Lett, 2017) are inhibition, Ratio and Activity values, retold here.

Molecules are shown by their SMILES. The source made the active and inactive calls. The rule behind the calls is not given here.

One test has as its system Klebsiella aerogenes. Briefly: Inhibition of FtsZ in Klebsiella aerogenes ATCC 9621 assessed as growth inhibition at 100 ug per disc after 18 to 24 hrs by paper disc agar diffusion assay.
Test [1] deals with Bacillus subtilis subsp. spizizenii ATCC 6633 = JCM 2499. The test can be described thus: Inhibition of FtsZ in Bacillus subtilis ATCC 6633 assessed as ratio of diameter of zone inhibition of test compound to diameter of zone inhibition of tetracycline at 100 ug per disc after 18 to 24 hrs by paper disc agar diffusion assay.
In test [2] the test system is Mycolicibacterium smegmatis. Briefly: Inhibition of FtsZ in Mycobacterium smegmatis ATCC 607 assessed as ratio of diameter of zone inhibition of test compound to diameter of zone inhibition of streptomycin at 100 ug per disc after 18 to 24 hrs by paper disc agar diffusion assay.
The subject of another test is Aspergillus niger. Briefly: Antifungal activity against Aspergillus niger ATCC 16404 at 100 ug per disc after 3 to 5 days by paper disc agar diffusion assay. Type of test: functional.
Test [3] has as its target T1, Cell division protein FtsZ (Staphylococcus aureus) (UniProt P0A031).
T1 sequence (whole entry): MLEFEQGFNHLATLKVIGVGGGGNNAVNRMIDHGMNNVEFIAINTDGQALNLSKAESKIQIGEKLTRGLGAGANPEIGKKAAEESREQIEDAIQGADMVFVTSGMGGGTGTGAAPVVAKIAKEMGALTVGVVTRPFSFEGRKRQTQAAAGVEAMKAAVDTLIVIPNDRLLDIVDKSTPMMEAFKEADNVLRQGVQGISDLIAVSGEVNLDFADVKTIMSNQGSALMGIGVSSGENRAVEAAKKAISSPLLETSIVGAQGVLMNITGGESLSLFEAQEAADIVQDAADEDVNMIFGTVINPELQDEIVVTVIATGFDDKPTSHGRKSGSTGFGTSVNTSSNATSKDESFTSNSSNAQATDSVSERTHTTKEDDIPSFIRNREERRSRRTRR
Briefly: Inhibition of FtsZ in Staphylococcus aureus ATCC 6538P assessed as ratio of diameter of zone inhibition of test compound to diameter of zone inhibition of cephaloridine at 100 ug per disc after 18 to 24 hrs by paper disc agar diffusion assay.

The subject of the next test is Pseudomonas aeruginosa. The test can be described thus: Inhibition of FtsZ in Pseudomonas aeruginosa ATCC 9027 assessed as growth inhibition at 100 ug per disc after 18 to 24 hrs by paper disc agar diffusion assay.
Another test concerns Candida albicans. The test can be described thus: Antifungal activity against Candida albicans ATCC 10231 at 100 ug per disc after 3 to 5 days by paper disc agar diffusion assay. It is filed as functional.
The test system of test [4] is Escherichia coli ATCC 25922. The test can be described thus: Inhibition of FtsZ in Escherichia coli ATCC 25922 assessed as growth inhibition at 100 ug per disc after 18 to 24 hrs by paper disc agar diffusion assay.
The subject of test [5] is Mycolicibacterium smegmatis. Briefly: Inhibition of FtsZ in Mycobacterium smegmatis ATCC 607 assessed as growth inhibition at 100 ug per disc after 18 to 24 hrs by paper disc agar diffusion assay.
The target of test [6] is T1, Cell division protein FtsZ (Staphylococcus aureus). Briefly: Inhibition of FtsZ in Staphylococcus aureus ATCC 6538P assessed as growth inhibition at 100 ug per disc after 18 to 24 hrs by paper disc agar diffusion assay.
Test [7] relates to Bacillus subtilis subsp. spizizenii ATCC 6633 = JCM 2499. Briefly: Inhibition of FtsZ in Bacillus subtilis ATCC 6633 assessed as growth inhibition at 100 ug per disc after 18 to 24 hrs by paper disc agar diffusion assay.

For the compound `NC(=O)c1c(F)ccc(OCCCOc2c(Cl)cc(Cl)c3cccnc23)c1F`, the inhibition result (with Klebsiella aerogenes; in the test on Pseudomonas aeruginosa; in test [4]) was “inactive” throughout. Moreover, the values for the Ratio in test [1], in test [2] and in test [3] were 0.1, 0.2 and 0.18, respectively. Moreover, the result in the test on Aspergillus niger and in the test with Candida albicans was inactive.

`NC(=O)c1c(F)ccc(OCC(=O)OCCOc2ccccc2)c1F`: the inhibition entry (in the test on Klebsiella aerogenes; in the test with Pseudomonas aeruginosa; in test [4]) was “inactive” throughout. Besides, the Ratio in test [1] is 0.18; in test [2] it was 0.36; in test [3], 0.18. Moreover, the result with Aspergillus niger and with Candida albicans was inactive.

Take `Cc1ccc(OCCOC(=O)COc2ccc(F)c(C(N)=O)c2F)cc1`: the inhibition result (in the test on Klebsiella aerogenes; in test [5]; in the test with Pseudomonas aeruginosa; in test [4]) was “inactive” throughout. The Ratio in [1] was 0.25; in test [3], 0.1. Also, the result in the test on Aspergillus niger and in the test with Candida albicans was inactive.

For the compound `NC(=O)c1c(F)ccc(OCC(=O)Oc2ccccc2)c1F`, the inhibition result (with Klebsiella aerogenes; with Pseudomonas aeruginosa; in test [4]) was “inactive” in each case. Besides, the Ratio in test [1] was 0.19; in [2], 0.5; in test [3] it was 0.07. Also, the result in the test with Aspergillus niger and in the test with Candida albicans was inactive.

For `COc1ccc(OCCOC(=O)COc2ccc(F)c(C(N)=O)c2F)cc1`, the inhibition entry (in the test on Klebsiella aerogenes; with Pseudomonas aeruginosa; in [6]; in [4]) was “inactive” each time. Further, the figures for the Ratio in [1] and in test [2] were 0.51 and 0.37, respectively. Further, the outcome in the test on Aspergillus niger and in the test with Candida albicans was inactive.

Regarding `NC(=O)c1c(F)ccc(OCC(=O)OCCOc2ccc(F)cc2)c1F`, the inhibition entry (in the test with Klebsiella aerogenes; in the test with Pseudomonas aeruginosa; in [4]) was “inactive” in each case. The Ratio in test [1] was determined as 0.18; in test [2] it was 0.62; in [3], 0.44. Also, the result in the test with Aspergillus niger and in the test with Candida albicans was inactive.

Take `NS(=O)(=O)c1c(F)ccc(OCc2nc3cc(Cl)ccc3s2)c1F`: the inhibition entry (in the test with Klebsiella aerogenes; in test [7]; in [5]; in the test on Pseudomonas aeruginosa; in test [6]; in [4]) was “inactive” in each case. For the same compound, the result in the test with Aspergillus niger and with Candida albicans was inactive.

With `NS(=O)(=O)c1c(F)ccc(OCc2nc3cc(Cl)cnc3s2)c1F`, the inhibition entry (in the test on Klebsiella aerogenes; in test [7]; in test [5]; with Pseudomonas aeruginosa; in test [6]; in [4]) was “inactive” in each case. In addition, the outcome with Aspergillus niger and in the test with Candida albicans was inactive.

`NC(=O)c1c(F)ccc(OCC(=O)OCc2ccccc2)c1F`: the inhibition result (in the test with Klebsiella aerogenes; in test [5]; with Pseudomonas aeruginosa; in [6]; in test [4]) was “inactive” throughout. Also, the Ratio in test [1] came out at 0.18. Also, the outcome in the test on Aspergillus niger and in the test on Candida albicans was inactive.

Take `NC(=O)c1c(F)ccc(OCCCOc2ccc3ccccc3c2)c1F`: the inhibition result (in the test on Klebsiella aerogenes; in test [7]; in [5]; in the test on Pseudomonas aeruginosa; in test [6]; in test [4]) was “inactive” throughout. The outcome in the test on Aspergillus niger and with Candida albicans was inactive.

With `NC(=O)c1c(F)ccc(OCCCOc2cccc3cccnc23)c1F`, the inhibition result (with Klebsiella aerogenes; in test [7]; in [5]; with Pseudomonas aeruginosa; in test [4]) was “inactive” throughout. Also, the result in the test with Aspergillus niger and in the test on Candida albicans was inactive. Besides, in test [3], the Ratio amounted to 0.07.

Regarding `Cc1ccc2cccc(OCCCOc3ccc(F)c(C(N)=O)c3F)c2n1`, the inhibition result (in the test with Klebsiella aerogenes; in test [7]; in [5]; in the test with Pseudomonas aeruginosa; in [6]; in test [4]) was “inactive” throughout. In addition, the result in the test with Aspergillus niger and with Candida albicans was inactive.

Take `NC(=O)c1c(F)ccc(OCc2nc3cc(Cl)cnc3s2)c1F`: the inhibition entry in test [7] and in test [5] was “inactive” in each case. For the same compound, in test [3], the Ratio was 1.2.

Take `N#Cc1ccc(OCCOC(=O)COc2ccc(F)c(C(N)=O)c2F)cc1`: the inhibition entry (in the test on Klebsiella aerogenes; in [5]; in the test with Pseudomonas aeruginosa; in test [6]; in [4]) was “inactive” each time. The Ratio in test [1] was 0.11. Further, the result with Aspergillus niger and in the test on Candida albicans was inactive.

On to `Cc1ccc(OC(=O)COc2ccc(F)c(C(N)=O)c2F)cc1`, for which the inhibition entry (in the test on Klebsiella aerogenes; in the test on Pseudomonas aeruginosa; in test [4]) was “inactive” each time. Moreover, the values for the Ratio in test [1], in [2] and in test [3] were 0.3, 0.07 and 0.25, respectively. For the same compound, the outcome in the test on Aspergillus niger and with Candida albicans was inactive.

Regarding `NC(=O)c1c(F)ccc(OCCC(=O)Oc2ccccc2)c1F`, the inhibition result (in the test on Klebsiella aerogenes; in the test on Pseudomonas aeruginosa; in [4]) was “inactive” each time. For the same compound, the Ratio is 0.3 in test [1] and 0.41 in test [3]. The outcome in the test with Aspergillus niger and with Candida albicans was inactive.

For the compound `NC(=O)c1c(F)ccc(OCC(=O)Nc2ccccc2)c1F`, the inhibition entry (in the test with Klebsiella aerogenes; in [5]; in the test on Pseudomonas aeruginosa; in [4]) was “inactive” throughout. The Ratio in [1] and in [3] was 0.1 each time. Further, the result with Aspergillus niger and in the test with Candida albicans was inactive.

As to `NC(=O)c1c(F)ccc(OCC(=O)OCCOc2ccc(Br)cc2)c1F`, the inhibition result (with Klebsiella aerogenes; in test [5]; in the test on Pseudomonas aeruginosa; in test [4]) was “inactive” each time. Moreover, the Ratio in test [1] stood at 0.15; in test [3], 0.22. Besides, the outcome in the test on Aspergillus niger and in the test with Candida albicans was inactive.

`NC(=O)c1c(F)ccc(OCCCOc2cccc3ccccc23)c1F`: the inhibition entry (in the test with Klebsiella aerogenes; in test [7]; in test [5]; in the test with Pseudomonas aeruginosa; in test [6]; in test [4]) was “inactive” in each case. Besides, the outcome with Aspergillus niger and in the test on Candida albicans was inactive.

Consider `NC(=O)c1c(F)ccc(OCCCOc2ccc(Cl)c3cccnc23)c1F`, for which the inhibition result (in the test on Klebsiella aerogenes; in test [5]; in the test on Pseudomonas aeruginosa; in test [4]) was “inactive” each time. Also, the Ratio in [1] is 0.1; in [3] it was 0.25. Besides, the result in the test with Aspergillus niger and with Candida albicans was inactive.
